# Measured values taken from patent US6355799B1, “Substituted benzene compounds, process for their preparation, and herbicidal and defoliant compositions containing them” (ISK Americas Incorporated, priority 1997, dated 2002).
# Assays:
# Type in all cases: in vivo
# [1] = system: redroot pigweed (Amaranthus retroflexus, AMARE); test: Pre-emerge test, greenhouse herbicide activity screening; conditions: pre-emerge, rated 14 days after application, 0 = no damage, 100 = complete death
# How it was run: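 Visual ratings on a 0-100 scale (0 no damage, 100 all plants dead) were taken at 14 days after treatment. Rates of 15-1000 g ai/ha in acetone, 187 l/ha, were sprayed onto soil one day after planting (pre-emerge) or onto 2-3 leaf plants with 0.25% v/v surfactant (post-emerge).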
# [2] = system: field corn (Zea mays L., var. Dekalb 535, CORN); test: Pre-emerge test, crop safety; conditions: pre-emerge, rated 14 days after application, 0 = no damage, 100 = complete death
# How it was run: (§1)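 Rating: 0–100 visual injury, 14 DAA. Application: acetone, 187 l/ha, 15–1000 g ai/ha, flat-fan track sprayer with nozzle 40–45 cm above soil or canopy. Post-emerge runs used 0.25% v/v surfactant on 2–3 leaf plants.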
# [3] = system: upland rice (Oryza sp., var. Tebonnet, RICE); test: Pre-emerge test, crop safety; conditions: pre-emerge, rated 14 days after application, 0 = no damage, 100 = complete death
# How it was run: as §1
# [4] = system: ivyleaf morningglory (Ipomoea hederacea, IPOHE); test: Pre-emerge test, greenhouse herbicide activity screening; conditions: pre-emerge, rated 14 days after application, 0 = no damage, 100 = complete death
# How it was run: (§2)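 Fourteen days after spraying, crop and weed injury was graded visually from 0, no effect, to 100, every plant dead. Test substances were dissolved in acetone and applied at 15–1000 g ai/ha with a flat-fan nozzle. Application was either pre-emergence, one day after sowing, or post-emergence at the 2–3 leaf stage.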
# [5] = system: sicklepod (Cassia obtusifolia, CASOB); test: as above; conditions: pre-emerge, rated 14 days after application, 0 = no damage, 100 = complete death
# How it was run: as §2
# [6] = system: lambsquarters (Chenopodium album, CHEAL); test: as above; conditions: pre-emerge, rated 14 days after application, 0 = no damage, 100 = complete death
# How it was run: as §2
# [7] = system: common ragweed (Ambrosia artemisizfolia L., AMBEL); test: as above; conditions: pre-emerge, rated 14 days after application, 0 = no damage, 100 = complete death
# How it was run: as §2
# [8] = system: velvetleaf (Abutilon theophrasti, ABUTH); test: as above; conditions: pre-emerge, rated 14 days after application, 0 = no damage, 100 = complete death
# How it was run: as §2
# [9] = system: barnyardgrass (Echinochloa crus-galli, ECHCG); test: as above; conditions: pre-emerge, rated 14 days after application, 0 = no damage, 100 = complete death
# How it was run: as §2
# [10] = system: large crabgrass (Digitaria sanguinalis, DIGSA); test: as above; conditions: pre-emerge, rated 14 days after application, 0 = no damage, 100 = complete death
# How it was run: as §2
# [11] = system: johnsongrass (Sorghum halepense, SORHA); test: as above; conditions: pre-emerge, rated 14 days after application, 0 = no damage, 100 = complete death
# How it was run: as §2
# [12] = system: green foxtail (Setaria viridis, SETVI); test: as above; conditions: pre-emerge, rated 14 days after application, 0 = no damage, 100 = complete death
# How it was run: as §2
# [13] = system: ivyleaf morningglory (Ipomoea hederacea, IPOHE); test: Post-emerge test, greenhouse herbicide activity screening; conditions: phytotoxicity rating 0-100 (0 no damage, 100 complete death), 14 days after application
# How it was run: (§3)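 Herbicidal damage is scored 0 (none) to 100 (complete plant death) two weeks after a simulated field spray. Rates span 15–1000 g ai/ha, delivered in acetone at 187 l/ha. For post-emergence treatments, plants have 2–3 leaves and the spray carries 0.25% v/v non-ionic surfactant.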
# [14] = system: sicklepod (Cassia obtusifolia, CASOB); test: as above; conditions: phytotoxicity rating 0-100 (0 no damage, 100 complete death), 14 days after application
# How it was run: as §3
# [15] = system: lambsquarters (Chenopodium album, CHEAL); test: as above; conditions: phytotoxicity rating 0-100 (0 no damage, 100 complete death), 14 days after application
# How it was run: as §3
# [16] = system: common ragweed (Ambrosia artemisizfolia L., AMBEL); test: as above; conditions: phytotoxicity rating 0-100 (0 no damage, 100 complete death), 14 days after application
# How it was run: as §3
# [17] = system: velvetleaf (Abutilon theophrasti, ABUTH); test: as above; conditions: phytotoxicity rating 0-100 (0 no damage, 100 complete death), 14 days after application
# How it was run: as §3
# [18] = system: barnyardgrass (Echinochloa crus-galli, ECHCG); test: as above; conditions: phytotoxicity rating 0-100 (0 no damage, 100 complete death), 14 days after application
# How it was run: as §3
# [19] = system: large crabgrass (Digitaria sanguinalis, DIGSA); test: as above; conditions: phytotoxicity rating 0-100 (0 no damage, 100 complete death), 14 days after application
# How it was run: as §3
# [20] = system: redroot pigweed (Amaranthus retroflexus, AMARE); test: as above; conditions: phytotoxicity rating 0-100 (0 no damage, 100 complete death), 14 days after application
# How it was run: as §3
# [21] = system: johnsongrass (Sorghum halepense, SORHA); test: as above; conditions: phytotoxicity rating 0-100 (0 no damage, 100 complete death), 14 days after application
# How it was run: as §3
# [22] = system: green foxtail (Setaria viridis, SETVI); test: as above; conditions: phytotoxicity rating 0-100 (0 no damage, 100 complete death), 14 days after application
# How it was run: as §3
# [23] = system: field corn (Zea mays L., var. Dekalb 535, CORN); test: Post-emerge test, crop safety; conditions: phytotoxicity rating 0-100 (0 no damage, 100 complete death), 14 days after application
# How it was run: as §2
# [24] = system: upland rice (Oryza sp., var. Tebonnet, RICE); test: Post-emerge test, crop safety; conditions: phytotoxicity rating 0-100 (0 no damage, 100 complete death), 14 days after application
# How it was run: as §2
structure (smiles),measurement,setting,value
COc1c(Cl)cc(F)c(-n2c(=O)c([N+](=O)[O-])c(C(F)(F)F)n(C)c2=O)c1[N+](=O)[O-] [Compound 1-9],"Pre-emerge Herbicidal Activity AMARE (phytotoxicity rating, scale 0-100)",[1]; 63 g ai/ha,100
same,"Pre-emerge crop damage CORN (phytotoxicity rating, scale 0-100)",[2]; 63 g ai/ha,90
same,"Pre-emerge crop damage RICE (phytotoxicity rating, scale 0-100)",[3]; 63 g ai/ha,95
same,"Pre-emerge Herbicidal Activity IPOHE (phytotoxicity rating, scale 0-100)",[4]; 63 g ai/ha,100
same,"Pre-emerge Herbicidal Activity CASOB (phytotoxicity rating, scale 0-100)",[5]; 63 g ai/ha,100
same,"Pre-emerge Herbicidal Activity CHEAL (phytotoxicity rating, scale 0-100)",[6]; 63 g ai/ha,100
same,"Pre-emerge Herbicidal Activity AMBEL (phytotoxicity rating, scale 0-100)",[7]; 63 g ai/ha,100
same,"Pre-emerge Herbicidal Activity ABUTH (phytotoxicity rating, scale 0-100)",[8]; 63 g ai/ha,100
same,"Pre-emerge Herbicidal Activity ECHCG (phytotoxicity rating, scale 0-100)",[9]; 63 g ai/ha,100
same,"Pre-emerge Herbicidal Activity DIGSA (phytotoxicity rating, scale 0-100)",[10]; 63 g ai/ha,100
same,"Pre-emerge Herbicidal Activity SORHA (phytotoxicity rating, scale 0-100)",[11]; 63 g ai/ha,100
same,"Pre-emerge Herbicidal Activity SETVI (phytotoxicity rating, scale 0-100)",[12]; 63 g ai/ha,100
same,Post-emerge Herbicidal Activity IPOHE,[13]; 63 g ai/ha,100
same,Post-emerge Herbicidal Activity CASOB,[14]; 63 g ai/ha,90
same,Post-emerge Herbicidal Activity CHEAL,[15]; 63 g ai/ha,100
same,Post-emerge Herbicidal Activity AMBEL,[16]; 63 g ai/ha,90
same,Post-emerge Herbicidal Activity ABUTH,[17]; 63 g ai/ha,100
same,Post-emerge Herbicidal Activity ECHCG,[18]; 63 g ai/ha,70
same,Post-emerge Herbicidal Activity DIGSA,[19]; 63 g ai/ha,90
same,Post-emerge Herbicidal Activity AMARE,[20]; 63 g ai/ha,100
same,Post-emerge Herbicidal Activity SORHA,[21]; 63 g ai/ha,90
same,Post-emerge Herbicidal Activity SETVI,[22]; 63 g ai/ha,90
same,Post-emerge Herbicidal Activity CORN (crop damage),[23]; 63 g ai/ha,30
same,Post-emerge Herbicidal Activity RICE (crop damage),[24]; 63 g ai/ha,40
COc1c(Cl)cc(F)c(-n2c(=O)c(N)c(C(F)(F)F)n(C)c2=O)c1N [Compound 1-10],"Pre-emerge Herbicidal Activity AMARE (phytotoxicity rating, scale 0-100)",[1]; 63 g ai/ha,70
same,"Pre-emerge Herbicidal Activity AMARE (phytotoxicity rating, scale 0-100)",[1]; 250 g ai/ha,100
same,"Pre-emerge crop damage CORN (phytotoxicity rating, scale 0-100)",[2]; 63 g ai/ha,0
same,"Pre-emerge crop damage CORN (phytotoxicity rating, scale 0-100)",[2]; 250 g ai/ha,0
same,"Pre-emerge crop damage RICE (phytotoxicity rating, scale 0-100)",[3]; 63 g ai/ha,0
same,"Pre-emerge crop damage RICE (phytotoxicity rating, scale 0-100)",[3]; 250 g ai/ha,0
same,"Pre-emerge Herbicidal Activity IPOHE (phytotoxicity rating, scale 0-100)",[4]; 63 g ai/ha,0
same,"Pre-emerge Herbicidal Activity IPOHE (phytotoxicity rating, scale 0-100)",[4]; 250 g ai/ha,60
same,"Pre-emerge Herbicidal Activity CASOB (phytotoxicity rating, scale 0-100)",[5]; 63 g ai/ha,20
same,"Pre-emerge Herbicidal Activity CASOB (phytotoxicity rating, scale 0-100)",[5]; 250 g ai/ha,50
same,"Pre-emerge Herbicidal Activity CHEAL (phytotoxicity rating, scale 0-100)",[6]; 63 g ai/ha,30
same,"Pre-emerge Herbicidal Activity CHEAL (phytotoxicity rating, scale 0-100)",[6]; 250 g ai/ha,100
same,"Pre-emerge Herbicidal Activity AMBEL (phytotoxicity rating, scale 0-100)",[7]; 63 g ai/ha,0
same,"Pre-emerge Herbicidal Activity AMBEL (phytotoxicity rating, scale 0-100)",[7]; 250 g ai/ha,60
same,"Pre-emerge Herbicidal Activity ABUTH (phytotoxicity rating, scale 0-100)",[8]; 63 g ai/ha,100
same,"Pre-emerge Herbicidal Activity ABUTH (phytotoxicity rating, scale 0-100)",[8]; 250 g ai/ha,100
same,"Pre-emerge Herbicidal Activity ECHCG (phytotoxicity rating, scale 0-100)",[9]; 63 g ai/ha,0
same,"Pre-emerge Herbicidal Activity ECHCG (phytotoxicity rating, scale 0-100)",[9]; 250 g ai/ha,0
same,"Pre-emerge Herbicidal Activity DIGSA (phytotoxicity rating, scale 0-100)",[10]; 63 g ai/ha,0
same,"Pre-emerge Herbicidal Activity DIGSA (phytotoxicity rating, scale 0-100)",[10]; 250 g ai/ha,30
same,"Pre-emerge Herbicidal Activity SORHA (phytotoxicity rating, scale 0-100)",[11]; 63 g ai/ha,0
same,"Pre-emerge Herbicidal Activity SORHA (phytotoxicity rating, scale 0-100)",[11]; 250 g ai/ha,0
same,"Pre-emerge Herbicidal Activity SETVI (phytotoxicity rating, scale 0-100)",[12]; 63 g ai/ha,0
same,"Pre-emerge Herbicidal Activity SETVI (phytotoxicity rating, scale 0-100)",[12]; 250 g ai/ha,100
same,Post-emerge Herbicidal Activity IPOHE,[13]; 63 g ai/ha,20
same,Post-emerge Herbicidal Activity IPOHE,[13]; 250 g ai/ha,70
same,Post-emerge Herbicidal Activity CASOB,[14]; 63 g ai/ha,0
same,Post-emerge Herbicidal Activity CASOB,[14]; 250 g ai/ha,10
same,Post-emerge Herbicidal Activity CHEAL,[15]; 63 g ai/ha,10
same,Post-emerge Herbicidal Activity CHEAL,[15]; 250 g ai/ha,50
same,Post-emerge Herbicidal Activity AMBEL,[16]; 63 g ai/ha,0
same,Post-emerge Herbicidal Activity AMBEL,[16]; 250 g ai/ha,30
same,Post-emerge Herbicidal Activity ABUTH,[17]; 63 g ai/ha,30
same,Post-emerge Herbicidal Activity ABUTH,[17]; 250 g ai/ha,90
same,Post-emerge Herbicidal Activity ECHCG,[18]; 63 g ai/ha,0
same,Post-emerge Herbicidal Activity ECHCG,[18]; 250 g ai/ha,0
same,Post-emerge Herbicidal Activity DIGSA,[19]; 63 g ai/ha,0
same,Post-emerge Herbicidal Activity DIGSA,[19]; 250 g ai/ha,0
same,Post-emerge Herbicidal Activity AMARE,[20]; 63 g ai/ha,10
same,Post-emerge Herbicidal Activity AMARE,[20]; 250 g ai/ha,30
same,Post-emerge Herbicidal Activity SORHA,[21]; 63 g ai/ha,0
same,Post-emerge Herbicidal Activity SORHA,[21]; 250 g ai/ha,0
same,Post-emerge Herbicidal Activity SETVI,[22]; 63 g ai/ha,0
same,Post-emerge Herbicidal Activity SETVI,[22]; 250 g ai/ha,0
same,Post-emerge Herbicidal Activity CORN (crop damage),[23]; 63 g ai/ha,0
same,Post-emerge Herbicidal Activity CORN (crop damage),[23]; 250 g ai/ha,0
same,Post-emerge Herbicidal Activity RICE (crop damage),[24]; 63 g ai/ha,0
same,Post-emerge Herbicidal Activity RICE (crop damage),[24]; 250 g ai/ha,0
